Source: paper PMC7655571, “Acetylcholinesterase inhibition in electric eel and human donor blood: an in vitro approach to investigate interspecies differences and human variability in toxicodynamics” (Archives of Toxicology, 2020)
Entries after “also recorded” stand apart in the source; their conditions may differ. Like-named read-outs stand apart in the source and are kept apart here.

Columns and labels:
[1] = target: T1, Electrophorus electricus AChE (Electrophorus electricus, UniProt O42275); assay: AChE inhibition, electric eel enzyme (Ellman method); format: biochemical; details: for AChE inhibition (in words), electric eel: concentration–response curves
T1 construct: purchased Sigma-Aldrich C2888
Method: (§1) A 1.3 mM DTNB buffer and a 6 mM acetylthiocholine buffer were prepared in the 50 mM sodium phosphate buffer, a 3 mM ethopropazine buffer was prepared in sterile water and all were stored in aliquots at − 20 °C. A 600 µM ethopropazine buffer was prepared just before use in sodium phosphate buffer.
(§2) Stock solutions were diluted in methanol to create a dosing series and also stored at − 20 °C. These series were 100× diluted in sodium phosphate buffer to get 1% methanol solutions, resulting in a final concentration of 0.1% methanol in the wells.
AChE from Electrophorus electricus (electric eel) and freshly drawn (maximum one-day-old), venous EDTA whole blood samples from healthy human donors were used. […] Following incubation for 30 min at room temperature, electric eel AChE was used directly in the enzyme activity assay (see “Enzyme activity assay”). For human blood AChE, 50 µL of the blood was added to a new 48-wells plate and 950 µL Triton buffer was added to these wells (20× dilution).
Briefly, 20 µL of electric eel AChE or 20 µL of Triton-diluted blood (either exposed or unexposed) and 20 µL ethopropazine were added to 460 µL of DTNB buffer in a 48-wells plate. […] Blank wells contained only DTNB buffer and unexposed enzyme/blood to correct for any background absorbance. To these wells, 100 µL sodium phosphate buffer was added instead of acetylthiocholine after incubation. The final concentration of electric eel AChE was 4 mU/well.
All in vitro data were analysed in GraphPad Prism (version 8.4) and are expressed as mean ± standard deviation (SD). For data analysis, vehicle control (0.1% methanol) was set at 100% for both human and electric eel AChE. For human blood, the technical replicates were averaged to perform statistical tests. […] The electric eel AChE data consisted of 3 technical replicates per experiment and 3–4 independent biological replicates.

human blood AChE = target: T2, human blood AChE (Homo sapiens, UniProt P22303); assay: AChE inhibition in human donor whole blood (Ellman method); format: biochemical; details: for IC50: IC50 Human, whole blood, average of 20 donors; for AChE inhibition (in words), human blood: concentration–response curves
T2 construct: 90 µL undiluted blood in a 48-wells plate; from tissue; host or cells: venous EDTA whole blood from healthy human donors, lysed and diluted in Triton X-100 buffer
Method: as §1, §2
AChE from Electrophorus electricus (electric eel) and freshly drawn (maximum one-day-old), venous EDTA whole blood samples from healthy human donors were used. […] For human blood AChE, 50 µL of the blood was added to a new 48-wells plate and 950 µL Triton buffer was added to these wells (20× dilution).
Briefly, 20 µL of electric eel AChE or 20 µL of Triton-diluted blood (either exposed or unexposed) and 20 µL ethopropazine were added to 460 µL of DTNB buffer in a 48-wells plate. […] Blank wells contained only DTNB buffer and unexposed enzyme/blood to correct for any background absorbance. To these wells, 100 µL sodium phosphate buffer was added instead of acetylthiocholine after incubation.
Unexposed, diluted blood (100 µL) was added to a 96-wells plate and 100 µL transformation agent (20 mg potassium ferricyanide, 5 mg potassium cyanide, 100 mg sodium bicarbonate and 50 µL Triton X-100 in 100 mL water) was added. […] Blank wells contained transformation reagent and buffer to correct for any background absorbance.
All in vitro data were analysed in GraphPad Prism (version 8.4) and are expressed as mean ± standard deviation (SD). For data analysis, vehicle control (0.1% methanol) was set at 100% for both human and electric eel AChE. For human blood, the technical replicates were averaged to perform statistical tests. Unpaired t tests were used to test for differences between men and women and a one-way ANOVA followed by a post-hoc Tukey test was used to compare data between different age groups (group 1: ≥ 60 years; group 2: 31–60 years; group 3: ≤ 30 years).

electric eel AChE = details: cited from earlier work
human AChE (blood) = details: source: blood; ref Das et al. ([2006]); cited from earlier work
[2] = test system: human AChE (red blood cells); details: source: red blood cells; ref Ajilore et al. [2018]; cited from earlier work
[3] = measured or estimated in plasma following human exposure, cited from earlier work
[4] = target: human AChE (recombinant enzyme); details: source: recombinant enzyme; ref Li et al. ([2019]); cited from earlier work

T2 sequence (P22303 32-617 isoform P22303-2 limits assumed): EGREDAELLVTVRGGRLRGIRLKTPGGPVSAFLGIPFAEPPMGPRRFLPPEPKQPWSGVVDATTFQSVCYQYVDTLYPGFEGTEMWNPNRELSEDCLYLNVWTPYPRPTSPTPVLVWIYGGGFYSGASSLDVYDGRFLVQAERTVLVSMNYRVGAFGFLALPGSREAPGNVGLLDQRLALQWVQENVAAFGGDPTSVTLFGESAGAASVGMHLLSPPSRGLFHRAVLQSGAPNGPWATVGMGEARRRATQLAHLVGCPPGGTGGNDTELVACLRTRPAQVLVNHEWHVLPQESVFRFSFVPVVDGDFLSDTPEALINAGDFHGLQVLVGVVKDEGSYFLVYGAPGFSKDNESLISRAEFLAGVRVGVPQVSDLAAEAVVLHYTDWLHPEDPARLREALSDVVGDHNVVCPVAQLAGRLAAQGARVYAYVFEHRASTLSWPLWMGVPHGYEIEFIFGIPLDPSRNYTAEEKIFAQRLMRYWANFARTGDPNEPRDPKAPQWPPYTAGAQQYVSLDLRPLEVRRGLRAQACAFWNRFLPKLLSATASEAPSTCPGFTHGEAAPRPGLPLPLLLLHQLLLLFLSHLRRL
T1 sequence (O42275 24-633): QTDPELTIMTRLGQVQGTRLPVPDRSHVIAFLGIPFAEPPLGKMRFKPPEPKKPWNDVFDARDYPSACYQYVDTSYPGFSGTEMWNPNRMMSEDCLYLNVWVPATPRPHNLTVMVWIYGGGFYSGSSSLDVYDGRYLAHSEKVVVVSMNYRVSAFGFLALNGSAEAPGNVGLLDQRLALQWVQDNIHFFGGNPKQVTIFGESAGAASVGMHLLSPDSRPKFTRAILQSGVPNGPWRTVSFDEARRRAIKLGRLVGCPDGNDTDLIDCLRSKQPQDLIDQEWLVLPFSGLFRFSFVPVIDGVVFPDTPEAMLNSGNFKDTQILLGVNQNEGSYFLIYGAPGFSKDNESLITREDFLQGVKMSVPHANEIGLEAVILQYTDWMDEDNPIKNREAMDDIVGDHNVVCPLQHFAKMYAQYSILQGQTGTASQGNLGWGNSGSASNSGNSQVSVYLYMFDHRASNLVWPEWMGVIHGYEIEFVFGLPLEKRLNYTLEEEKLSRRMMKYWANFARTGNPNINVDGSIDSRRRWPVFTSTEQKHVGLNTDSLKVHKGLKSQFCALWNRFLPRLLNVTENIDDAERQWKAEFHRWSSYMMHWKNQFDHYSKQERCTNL

Row | SMILES | IC50 [1] [µM] | AChE inhibition (in words), electric eel [1] | AChE inhibition (in words), electric eel ([1]; listed as chlorpyrifos) | IC50 (human blood AChE) [µM] | AChE inhibition (in words), human blood (human blood AChE) | AChE inhibition (in words), human blood (human blood AChE; listed as chlorpyrifos) | IC50 (electric eel AChE; ref Assis et al. ([2012])) [µM] | IC50 (electric eel AChE; ref Čolović et al. ([2011])) [µM] | IC50 (human AChE (blood)) [µM] | IC50 [2] [µM] | In vivo concentration ([3]; ref Buratti et al. ([2003])) [µM] | In vivo concentration ([3]; ref Eyer et al. ([2009])) [µM] | In vivo concentration ([3]; ref Huen et al. ([2012])) [µM] | AChE inhibition (in words), electric eel ([1]; listed as diazinon) | AChE inhibition (in words), human blood (human blood AChE; listed as diazinon) | IC50 [4] [µM] | AChE inhibition (in words), electric eel ([1]; listed as phosmet) | AChE inhibition (in words), human blood (human blood AChE; listed as phosmet) | IC50 Value Human [4] | In vivo concentration ([3]; ref Santori et al. ([2020])) [µM]
1 | CCOP(=S)(OCC)Oc1nc(Cl)c(Cl)cc1Cl [CPF, Chlorpyrifos] | > 0.35 | do not show any AChE inhibition; also recorded: did not inhibit AChE | did not show inhibition | > 10 | do not inhibit AChE activity; also recorded: do not show any AChE inhibition; also recorded: did not inhibit AChE | did not show inhibition | 0.03 | 4.5 | 0.12 | 200 | ≤ 10 | ≤ 5 | ≤ 5 | – | – | – | – | – | – | –
2 | CCOP(=S)(OCC)Oc1cc(C)nc(C(C)C)n1 [DZN, diazinon] | > 8.5 | do not show any AChE inhibition; also recorded: did not inhibit AChE | – | > 10 | do not inhibit AChE activity; also recorded: do not show any AChE inhibition; also recorded: did not inhibit AChE | – | 0.3 | > 200 | – | – | ≤ 10 | – | – | did not show inhibition | did not show inhibition | 38 | – | – | – | –
3 | COP(=S)(OC)SCN1C(=O)c2ccccc2C1=O [PM, phosmet] | > 1.4 | do not show any AChE inhibition; also recorded: did not inhibit AChE | – | > 30 | do not inhibit AChE activity; also recorded: do not show any AChE inhibition; also recorded: did not inhibit AChE | – | – | – | – | – | – | – | – | – | – | – | did not show inhibition | did not show inhibition | Inactive | ≤ 50
